From patent publication US8691865B2 (AbbVie Inc., priority 2008, dated 2014) come the findings set out here.

The IC50 is the midpoint of a concentration-inhibition curve.

Sequence of human Cav2.2 (Q00975 whole entry): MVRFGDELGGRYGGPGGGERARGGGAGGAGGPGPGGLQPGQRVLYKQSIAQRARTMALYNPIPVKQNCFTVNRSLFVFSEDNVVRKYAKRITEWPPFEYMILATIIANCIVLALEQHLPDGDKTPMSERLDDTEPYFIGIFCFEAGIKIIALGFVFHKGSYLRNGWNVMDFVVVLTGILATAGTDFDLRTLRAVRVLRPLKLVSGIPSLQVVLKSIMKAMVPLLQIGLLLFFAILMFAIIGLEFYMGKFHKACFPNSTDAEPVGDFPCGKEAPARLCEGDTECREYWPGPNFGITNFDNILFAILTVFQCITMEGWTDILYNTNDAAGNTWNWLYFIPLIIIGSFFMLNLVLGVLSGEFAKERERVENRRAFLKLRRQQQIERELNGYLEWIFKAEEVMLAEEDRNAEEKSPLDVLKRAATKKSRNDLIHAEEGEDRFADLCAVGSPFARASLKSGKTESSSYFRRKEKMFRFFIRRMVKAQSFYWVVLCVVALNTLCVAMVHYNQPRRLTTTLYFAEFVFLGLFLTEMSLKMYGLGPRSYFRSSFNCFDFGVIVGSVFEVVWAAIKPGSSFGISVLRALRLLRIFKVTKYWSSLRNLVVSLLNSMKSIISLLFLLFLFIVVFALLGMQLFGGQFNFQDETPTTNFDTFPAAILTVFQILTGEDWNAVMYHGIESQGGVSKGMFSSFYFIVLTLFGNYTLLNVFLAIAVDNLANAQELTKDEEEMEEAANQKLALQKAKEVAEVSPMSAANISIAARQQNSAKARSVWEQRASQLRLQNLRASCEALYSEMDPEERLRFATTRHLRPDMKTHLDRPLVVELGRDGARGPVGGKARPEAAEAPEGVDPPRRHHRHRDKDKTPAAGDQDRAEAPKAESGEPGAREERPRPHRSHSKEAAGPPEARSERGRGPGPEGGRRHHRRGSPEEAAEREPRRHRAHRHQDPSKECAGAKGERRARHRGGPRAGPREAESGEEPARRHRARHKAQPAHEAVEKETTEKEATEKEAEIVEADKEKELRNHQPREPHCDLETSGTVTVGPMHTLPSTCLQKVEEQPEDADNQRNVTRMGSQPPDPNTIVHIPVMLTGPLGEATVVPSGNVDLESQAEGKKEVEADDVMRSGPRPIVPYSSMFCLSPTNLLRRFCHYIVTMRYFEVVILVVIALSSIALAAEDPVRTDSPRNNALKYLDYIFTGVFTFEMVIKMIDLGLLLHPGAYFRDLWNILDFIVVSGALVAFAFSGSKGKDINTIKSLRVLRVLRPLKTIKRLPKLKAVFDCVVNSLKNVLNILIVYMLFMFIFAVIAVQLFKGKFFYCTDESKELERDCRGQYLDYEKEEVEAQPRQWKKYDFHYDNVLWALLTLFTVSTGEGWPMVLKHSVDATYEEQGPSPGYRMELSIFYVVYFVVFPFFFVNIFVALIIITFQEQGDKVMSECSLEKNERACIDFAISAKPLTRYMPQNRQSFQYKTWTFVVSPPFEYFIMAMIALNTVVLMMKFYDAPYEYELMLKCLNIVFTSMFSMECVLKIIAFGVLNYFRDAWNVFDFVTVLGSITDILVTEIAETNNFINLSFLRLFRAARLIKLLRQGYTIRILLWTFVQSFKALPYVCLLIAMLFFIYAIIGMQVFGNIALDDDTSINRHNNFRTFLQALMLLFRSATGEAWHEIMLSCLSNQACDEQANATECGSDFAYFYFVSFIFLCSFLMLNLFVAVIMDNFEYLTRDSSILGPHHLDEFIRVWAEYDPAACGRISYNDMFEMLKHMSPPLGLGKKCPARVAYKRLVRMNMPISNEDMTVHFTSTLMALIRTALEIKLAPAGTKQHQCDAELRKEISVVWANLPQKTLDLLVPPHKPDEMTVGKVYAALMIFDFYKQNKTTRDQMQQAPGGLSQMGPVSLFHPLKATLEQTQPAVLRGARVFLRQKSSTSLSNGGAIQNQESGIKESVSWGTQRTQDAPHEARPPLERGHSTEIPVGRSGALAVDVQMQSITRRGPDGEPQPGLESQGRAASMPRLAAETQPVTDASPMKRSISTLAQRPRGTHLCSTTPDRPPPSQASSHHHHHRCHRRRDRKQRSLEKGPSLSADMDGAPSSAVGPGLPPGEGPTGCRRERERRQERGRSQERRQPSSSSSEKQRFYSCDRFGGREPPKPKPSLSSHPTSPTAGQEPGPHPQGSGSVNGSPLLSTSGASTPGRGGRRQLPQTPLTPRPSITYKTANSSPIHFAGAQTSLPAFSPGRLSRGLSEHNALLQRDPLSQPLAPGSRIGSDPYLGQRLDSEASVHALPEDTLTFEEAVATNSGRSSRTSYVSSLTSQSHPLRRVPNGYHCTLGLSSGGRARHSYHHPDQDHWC
Sequence of human Cav2.2 (P54289 25-956 partner limits assumed): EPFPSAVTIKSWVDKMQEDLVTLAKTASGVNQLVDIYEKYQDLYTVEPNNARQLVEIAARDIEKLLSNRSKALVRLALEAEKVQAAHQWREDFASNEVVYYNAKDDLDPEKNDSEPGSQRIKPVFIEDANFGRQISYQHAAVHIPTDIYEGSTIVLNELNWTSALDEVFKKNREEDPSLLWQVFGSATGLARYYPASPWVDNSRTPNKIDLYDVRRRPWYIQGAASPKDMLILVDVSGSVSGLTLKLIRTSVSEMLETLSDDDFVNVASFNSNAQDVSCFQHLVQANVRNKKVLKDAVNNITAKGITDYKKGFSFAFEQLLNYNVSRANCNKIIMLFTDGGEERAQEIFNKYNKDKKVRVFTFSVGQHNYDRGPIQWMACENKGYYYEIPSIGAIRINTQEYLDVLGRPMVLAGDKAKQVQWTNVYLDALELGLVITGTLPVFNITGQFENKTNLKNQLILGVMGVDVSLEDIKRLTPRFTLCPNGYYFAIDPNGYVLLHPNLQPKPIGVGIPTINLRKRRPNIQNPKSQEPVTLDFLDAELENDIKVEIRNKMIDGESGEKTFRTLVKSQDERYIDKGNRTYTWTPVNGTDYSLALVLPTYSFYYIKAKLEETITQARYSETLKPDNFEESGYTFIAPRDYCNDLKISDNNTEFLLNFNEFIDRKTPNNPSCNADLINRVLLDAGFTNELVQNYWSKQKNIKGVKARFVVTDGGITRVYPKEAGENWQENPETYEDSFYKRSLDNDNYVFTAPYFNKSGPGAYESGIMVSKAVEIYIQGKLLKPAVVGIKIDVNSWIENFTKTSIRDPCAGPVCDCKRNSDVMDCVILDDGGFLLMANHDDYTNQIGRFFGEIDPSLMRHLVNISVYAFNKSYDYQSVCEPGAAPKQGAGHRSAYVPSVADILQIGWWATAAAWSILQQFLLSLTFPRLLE
Sequence of human Cav2.2 (P54289 957-1103 partner limits assumed): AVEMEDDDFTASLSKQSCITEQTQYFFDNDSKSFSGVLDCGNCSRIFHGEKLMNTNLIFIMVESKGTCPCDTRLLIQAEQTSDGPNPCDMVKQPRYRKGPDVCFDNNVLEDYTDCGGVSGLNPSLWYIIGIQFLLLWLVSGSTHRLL
Sequence of human Cav2.2 (P54284 whole entry partner): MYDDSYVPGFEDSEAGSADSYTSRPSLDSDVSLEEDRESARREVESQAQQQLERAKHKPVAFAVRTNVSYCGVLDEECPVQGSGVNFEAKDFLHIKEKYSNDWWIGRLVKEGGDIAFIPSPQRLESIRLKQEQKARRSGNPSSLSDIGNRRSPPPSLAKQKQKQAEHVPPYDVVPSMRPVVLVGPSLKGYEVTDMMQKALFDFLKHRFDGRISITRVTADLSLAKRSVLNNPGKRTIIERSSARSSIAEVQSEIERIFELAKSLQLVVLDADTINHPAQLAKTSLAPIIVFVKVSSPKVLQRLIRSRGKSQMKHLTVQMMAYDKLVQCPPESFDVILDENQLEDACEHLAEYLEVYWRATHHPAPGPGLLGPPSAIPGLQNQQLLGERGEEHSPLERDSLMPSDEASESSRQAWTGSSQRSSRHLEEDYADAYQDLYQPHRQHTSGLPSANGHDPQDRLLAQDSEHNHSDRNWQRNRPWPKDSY

One test has as its target human Cav2.2 (Homo sapiens, UniProt Q00975). As to the kind of experiment: Assessment of calcium channel activity using FLIPR (Ca2+ influx in IMR32 cells). The format is cell-based.
Conditions: not given
An outline of the steps:
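IC50 values derive from nonlinear sigmoidal fitting of percent inhibition, relative to inhibitor-free activity, of Ca2+ influx read by FLIPR. Cells were IMR32 human neuroblastoma, plated at 1−1.2×10^5 per well and grown 48 h at 37 °C.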
Consider `CN[C@@H](CC(C)C)C(=O)N[C@H]1CC[C@@H]2CN(c3ccc(F)c(Cl)c3)C[C@@H]21` [Example 773, N-[(3aR,4S,6aS)-2-(3-chloro-4-fluorophenyl)octahydrocyclopenta[c]pyrrol-4-yl]-N^2-methyl-L-leucinamide], for which the IC50 came to 1.79 µM.
Turning to `CCC[C@H](N)C(=O)N[C@H]1CC[C@@H]2CN(S(=O)(=O)c3ccc(C(F)(F)F)cc3)C[C@@H]21` [Example 422, N^1-((3aR,4S,6aS)-2-{[4-(trifluoromethyl)phenyl]sulfonyl}octahydrocyclopenta[c]pyrrol-4-yl)-L-norvalinamide], the IC50 amounted to 7.83 µM.
Same read-out and setting: the same measure for `O=C(N[C@H]1CC[C@@H]2CN(c3cccc(C(F)(F)F)n3)C[C@@H]21)c1ccc(F)c(F)c1` [Example 565, 3,4-difluoro-N-{(3aR,4S,6aS)-2-[6-(trifluoromethyl)pyridin-2-yl]octahydrocyclopenta[c]pyrrol-4-yl}benzamide]: 0.81 µM; for `O=C(N[C@H]1CC[C@@H]2CN(c3csc(C(F)F)c3)C[C@@H]21)[C@@H]1C[C@@H](F)CN1` [Example 655, (4R)-N-{(3aR,4S,6aS)-2-[5-(difluoromethyl)-3-thienyl]octahydrocyclopenta[c]pyrrol-4-yl}-4-fluoro-L-prolinamide]: 19.6 µM; for `CCC(CC)C(=O)N[C@H]1CC[C@H]2CN(Cc3cccc(C(F)(F)F)c3)C[C@H]21` (relative stereo) [Example 125, 2-ethyl-N-{(3aS*,4S*,6aR*)-2-[3-(trifluoromethyl)benzyl]octahydrocyclopenta[c]pyrrol-4-yl}butanamide]: 2.07 µM.
Take `CC(C)CC(C(=O)NC1CCC2CN(Cc3ccc(F)c(C(F)(F)F)c3)CC21)N(C)C(=O)OC(C)(C)C` [Example 312, tert-butyl(S)-1-((3aS,4R,6aR)-2-(4-fluoro-3-(trifluoromethyl)benzyl)octahydrocyclopenta[c]pyrrol-4-ylamino)-4-methyl-1-oxopentan-2-ylmethyl)carbamate]: the IC50 turned out to be 1.59 µM.
On the same count and under the same terms, in the case of `CN[C@@H](CC(C)C)C(=O)N[C@H]1CC[C@@H]2CN(Cc3ccc(F)cc3)C[C@@H]21` [Example 381, N^1-[(3aR,4S,6aS)-2-(4-fluorobenzyl)octahydrocyclopenta[c]pyrrol-4-yl]-N^2-methyl-L-leucinamide] it was greater than 30 µM; in that of `Cc1cnc(C(=O)N[C@H]2CC[C@@H]3CN(c4cccc(C(F)(F)F)n4)C[C@@H]32)cn1` [Example 579, 5-methyl-N-{(3aR,4S,6aS)-2-[6-(trifluoromethyl)pyridin-2-yl]octahydrocyclopenta[c]pyrrol-4-yl}pyrazine-2-carboxamide], 2.63 µM; in that of `O=C(N[C@H]1CC[C@H]2CNC[C@H]21)C(C1CCCCC1)C1CCCCC1` [Example 53, 2,2-dicyclohexyl-N-[(3aS,4S,6aR)-octahydrocyclopenta[c]pyrrol-4-yl]acetamide], 8.54 µM.
Regarding `N#Cc1ccc(N2C[C@H]3CC[C@H](NC(=O)[C@@H]4C[C@@H](F)CN4)[C@H]3C2)cc1` [Example 633, (4R)-N-[(3aR,4S,6aS)-2-(4-cyanophenyl)octahydrocyclopenta[c]pyrrol-4-yl]-4-fluoro-L-prolinamide], the IC50 was found to be 26.2 µM.
Turning to `N[C@@H](CC1CC1)C(=O)N[C@H]1CC[C@@H]2CN(c3ccc(OC(F)(F)F)cc3)C[C@@H]21` [Example 776, 3-cyclopropyl-N-{(3aR,4S,6aS)-2-[4-(trifluoromethoxy)phenyl]octahydrocyclopenta[c]pyrrol-4-yl}-L-alaninamide], the IC50 was found to be 2.53 µM.

The same test, now with this note: read-out: IC50 (μM) or percent inhibition (* indicates 3 minute incubation, otherwise 60 minute); IC50; 60 minute pre-incubation with compound; IMR32 cells, 80 mM KCl depolarization.
Consider `O=C(N[C@H]1CC[C@@H]2CN(S(=O)(=O)c3cccc(C(F)(F)F)c3)C[C@@H]21)[C@@H]1Cc2ccccc2CN1` [Example 391, (3S)-N-((3aR,4S,6aS)-2-{[3-(trifluoromethyl)phenyl]sulfonyl}octahydrocyclopenta[c]pyrrol-4-yl)-1,2,3,4-tetrahydroisoquinoline-3-carboxamide], for which the IC50 is 1.45 µM.
On the same count and under the same terms, the same measure for `O=C(CCC(c1ccc(F)cc1)c1ccc(F)cc1)N[C@@H]1CC[C@H]2CN(Cc3cccc(C(F)(F)F)c3)C[C@H]21` (relative stereo) [Example 144, 4,4-bis(4-fluorophenyl)-N-{(3aS*,4R*,6aR*)-2-[3-(trifluoromethyl)benzyl]octahydrocyclopenta[c]pyrrol-4-yl}butanamide]: 1.04 µM.
Still for that read-out and setting: in the case of `CC(C)[C@H](N)CC(=O)N[C@@H]1CC[C@H]2CN(S(=O)(=O)c3cccc(C(F)(F)F)c3)C[C@H]21` [Example 397, (3R)-3-amino-4-methyl-N-((3aS,4R,6aR)-2-{[3-(trifluoromethyl)phenyl]sulfonyl}octahydrocyclopenta[c]pyrrol-4-yl)pentanamide] it was 1.46 µM.
As to `O=S(=O)(c1cccc(C(F)(F)F)c1)N(C1CC1)[C@H]1CC[C@H]2CN(Cc3cccc(C(F)(F)F)c3)C[C@H]21` (relative stereo) [Example 204, N-cyclopropyl-3-(trifluoromethyl)-N-{(3aS*,4S*,6aR*)-2-[3-(trifluoromethyl)benzyl]octahydrocyclopenta[c]pyrrol-4-yl}benzenesulfonamide], the IC50 worked out at 1.27 µM.
In the case of `O=S(=O)(N[C@H]1CC[C@H]2CN(Cc3cccc(C(F)(F)F)c3)C[C@H]21)c1cccc(C(F)(F)F)c1` [Example 187, 3-(trifluoromethyl)-N-{(3aS,4S,6aR)-2-[3-(trifluoromethyl)benzyl]octahydrocyclopenta[c]pyrrol-4-yl}benzenesulfonamide], the IC50 came out at 1.24 µM.
For `CN[C@H](CC(C)C)C(=O)N[C@H]1CC[C@H]2CN(Cc3cccc(C(F)(F)F)c3)C[C@H]21` (relative stereo) [Example 160, N^2-methyl-N^1-{(3aS*,4S*,6aR*)-2-[3-(trifluoromethyl)benzyl]octahydrocyclopenta[c]pyrrol-4-yl}-D-leucinamide], the IC50 worked out at 3.78 µM.
On the same count and under the same terms, the same measure for `O=C(CCCCC(c1ccc(F)cc1)c1ccc(F)cc1)N[C@@H]1CC[C@H]2CN(Cc3cccc(C(F)(F)F)c3)C[C@H]21` (relative stereo) [Example 140, 6,6-bis(4-fluorophenyl)-N-{(3aS*,4R*,6aR*)-2-[3-(trifluoromethyl)benzyl]octahydrocyclopenta[c]pyrrol-4-yl}hexanamide]: 0.62 µM; for `CC(C)C[C@H](NCC(C)(C)C)C(=O)N[C@H]1CC[C@@H]2CN(Cc3ccccc3)C[C@@H]21` [Example 244, N^1-[(3aR,4S,6aS)-2-benzyloctahydrocyclopenta[c]pyrrol-4-yl]-N^2-neopentyl-L-leucinamide]: 9.11 µM.
Still for that read-out and setting: the same measure for `CCN(CC)[C@H]1CC[C@@H]2CN(S(=O)(=O)c3ccc(C(F)(F)F)cc3)C[C@@H]21` [Example 289, (3aR,4S,6aS)-N,N-diethyl-2-{[4-(trifluoromethyl)phenyl]sulfonyl}octahydrocyclopenta[c]pyrrol-4-amine]: 9.75 µM.
For the molecule `CCC[C@H](NC)C(=O)N[C@H]1CC[C@@H]2CN(S(=O)(=O)c3ccc(OC)cc3)C[C@@H]21` [Example 537, N^1-{(3aR,4S,6aS)-2-[(4-methoxyphenyl)sulfonyl]octahydrocyclopenta[c]pyrrol-4-yl}-N^2-methyl-L-norvalinamide], the IC50 is 11.3 µM.
On the same count and under the same terms, the same measure for `Cc1ccccc1CN1C[C@H]2CC[C@H](NC(=O)C(c3ccccc3)C(C)C)[C@H]2C1` (stereo partly drawn) [Example 92, 3-methyl-N-[(3aR,4S,6aS)-2-(2-methylbenzyl)octahydrocyclopenta[c]pyrrol-4-yl]-2-phenylbutanamide]: 2.04 µM.
